From patent US20130072385A1, “METHODS FOR DELAYING BUD BREAK BY APPLYING ABA ANALOGS” (priority 2011, published 2013) come the findings set out here.

Data set [1] has as its system Cabernet Franc grapevines. Kind of data set: Fall foliar spray of Cabernet Franc grapevines with PBI-425 or PBI-524, broken buds the following spring. It counts as in vivo. Particulars: for Average number of broken buds per vine: Apr. 11, 2012; for Effect on bud break the following spring / Impact on bud mortality: foliar application at about 0.03-0.3 grams per vine in the fall. The procedure:
A study was conducted to determine the elect of spraying Cabernet Franc grapevines with ABA analog PBI-425 or PBI-524 in the fall on bud break the following spring. Mature Cabernet Franc grapevines growing in a research vineyard in Benton Harbor, Mich. were sprayed to drip with surfactant alone or surfactant and ABA analog on Oct. 21, 2011. Vines were sprayed with approximately 300 ml applied to each of 9 vines per treatment arranged in three replicates of three vines each. Applied at about 100 gallons per acre 100 ppm treatment represents 37.8 grams per acre and 1000 ppm represents 378.4 grams per acre. In the spring after treatment prior to bud break the vines were pruned to 3-6 buds per spur and bud break of the entire vine was determined in the spring.

The test system of data set [2] is Cabernet Franc grapevines. In words: Fall foliar spray of Cabernet Franc grapevines, fruit maturity the following fall (juice pH and Brix). It counts as in vivo. As to conditions: for Brix of juice / pH of juice: 300 ppm in 0.1% Brij 98, fall foliar application, grapes harvested on Oct. 24, 2009; for Effect on maturation of the following crop of grapes (juice pH and Brix): foliar application at about 0.125 grams per vine in the fall. The procedure:
(§1) A study was conducted to determine the effect of spraying grapevines with ABA analogs in the fail on bud break the following spring. Mature Cabernet Franc grapevines growing in a research vineyard in Benton Harbor, Mich. were sprayed to drip with surfactant alone or surfactant and ABA analog on Oct. 25, 2008. Vines were sprayed with approximately 300 ml (113 grams ABA analog/acre) applied to each of 9 vines per treatment arranged in three replicates of three vines each. The following spring prior to bud break the vines were pruned to 3-6 buds per spur and bud break of 40 buds per vine (4 buds on each of 10 spurs) was rated periodically using the BBCH (Biologische Bundesanstalt, Bundessortenamt und Chemische Industrie) scale of development where a rating of 1 represents the first sign of bud swelling and 99 represents a defoliated plant re-entering dormancy at the end of the growing season.
When the control fruit had reached maturity three clusters of grapes were randomly harvested from each 3 vine replicate. Brix and pH measurements were made of the juice expressed by hand squeezing the grape clusters. Both the pH and Brix readings were lower for the grapes from the ABA analog treated vines indicating a delay of fruit maturity.

Data set [3] deals with Concord grape vines. Kind of data set: Spring spray of eco-dormant field grown Concord grape vines, bud break. In kind it is in vivo, Concord grapevines. As to conditions: 100 ppm PBI-429 plus 0.5% Brij 98, sprayed 2 times in spring. The procedure: A study was conducted to evaluate the effect of spraying eco-dormant Concord grape vines with ABA or ABA analog plus surfactants on bud break. Mature field grown Concord grape vines were sprayed to runoff 2 times in the spring after pruning and before bud swell. Three replicates of 3 vines each were treated with each treatment solution. Treatments were arranged in a randomized complete block design down a single vineyard row, Bud break was monitored by counting the number of broken buds of the distal 5 buds on 4 proximal canes on the middle vine of each 3 vine replicate. Bud break was only very slightly delayed by any of the treatments compared to the water sprayed control (Table 1).

Data set [4] deals with Cabernet Franc grapevines. Kind of data set: Fall foliar spray of mature Cabernet Franc grapevines, bud break the following spring (BBCH rating). In kind it is in vivo. Set-up: key to Average BBCH rating of bud developmental stages: BBCH scale: 1 = first bud swelling, 99 = defoliated, re-entering dormancy. Particulars: for Average BBCH rating of bud developmental stages: 300 ppm in 0.1% Brij 98, fall foliar application; for Delay of bud break the following spring / Impact on bud mortality: foliar application at about 0.125 grams per vine in the fall. The procedure:
as §1

Data set [5] concerns Concord grapevines. In words: Repeated spray of potted Concord grapevines during the bud break period. It counts as in vivo. Particulars: for Average number of broken buds per vine: 100 ppm in 0.05% Silwet L77, repeated spray. How it is done: A study was conducted to determine the effect of spraying Concord grapevines with ABA or ABA analog PBI-429 during bud break. Potted concord grapevines were placed in greenhouse conditions to promote bud break and the vines were repeatedly sprayed with ABA or ABA analog solutions. The vines were sprayed 2, 4, 8, 12 and 14 days after exposure of the vines into bud break promoting temperatures. Bud break was rated 6, 7, 8, 11, 12, 13, 14, 15, 19 and 20 days after vines were placed in warm bud break promoting conditions.

Data set [6] concerns PF-11 nectarine trees. In words: Fall foliar spray of PF-11 nectarine trees, fruit number per tree the following spring. In kind it is in vivo. How it is done: (§2) A study was conducted to determine the effect of spraying nectarine trees with ABA or ABA analogs in the fall on bud break the following spring. Mature PF-11 nectarine trees were sprayed to drip with surfactant alone or surfactant and ABA or ABA analog on Oct. 19, 2009. Trees were sprayed with approximately 500 ml (20.5 grams ABA analog/acre) applied to each of 6 trees per treatment arranged in a randomized complete block design. The following spring bud break on pre-selected branches was monitored.

Data set [7] relates to Concord grapevines. Kind of data set: Fall soil drench of potted Concord grapevines, bud break the following spring. It counts as in vivo. Set-up: key to Average rating of bud break (1-6 scale): 1 = no growth to 6 = three or more leaves showing. As to conditions: for Average rating of bud break (1-6 scale): 100 ppm (100 mg/pot) fall soil drench. The procedure:
A study was conducted to determine the effect of application of ABA or ABA analog as a soil drench in the fall on bud break of potted Concord grapevines the following spring. Two year old eco-dormant Concord grapevines were obtained from a Concord Nurseries in the spring. Bare-root vines were planted in 14 liter pots filled with Promix BX (available from Premier Horticulture Inc. Quakertown, Pa.) and grown outside for about 5 months (May October) prior to treatment. Plants received irrigation as needed and fertilized weekly (1 g/L all purpose fertilizer 20-20-20, The Scotts Company, Marysville, Ohio). Uniform plants were selected for the study. A total of 1000 mL of water or chemical solution was applied to the soil of each plant.
After chemical treatment, the ten replicate plants per treatment were arranged in a randomized complete block experimental design. The potted vines were surrounded by bark chips the depth of the soil in the pot to insulate the roots and prevent cold damage. The plants became dormant for the winter. In the following spring the vines were pruned to 5 buds per vine before bud break and bud break was monitored over time (Table 4). The buds were rated for bud break periodically on a scale from 1 for no growth to 6 for three or more leaves showing
Potted Concord grapevines were treated with 1000 mL water, solution containing 1000 mg ABA or solution containing 100 mg PBI-429. The dose of RBI-429 was used at one-tenth of ABA dose based on the preliminary results.

Data set [8] concerns PF-11 nectarine trees. In words: Fall foliar spray of PF-11 nectarine trees, bud break the following spring. In kind it is in vivo. How it is done:
as §2

Where [9] appears, read: 100 ppm in 0.1% Silwet Brij 98, fall foliar application.

For `C#CC1(C)CC(=O)C=C(C)C1(O)C=CC(C)=CC(=O)O` (centres unmarked) [PBI-425], the “Average number of broken buds per vine” value in data set [1] (setting [9]) was 11. In data set [1], the “Effect on bud break the following spring” value is recorded as “delayed bud break” and the “Impact on bud mortality” value is recorded as “without apparent impact on bud mortality”.

`C#CC1(C)CC(=O)C=C(C)C1(O)/C=C/C(C)=C\C(=O)OC` (centres unmarked) [PBI-429, 8′acetylene-ABA methyl ester] came in with a Brix of juice in data set [2] of 19.32. The compound also displayed a pH of juice in data set [2] of 3.16. Moreover, the “Effect on maturation of the following crop of grapes (juice pH and Brix)” value in data set [2] is listed as “delayed maturation”. The “Average percent broken buds” value is recorded as 8% in data set [3] (April 24) and 18% in data set [3] (April 30). The “Average BBCH rating of bud developmental stages” value stood at 0.1 in data set [4] (May 1, 2009); 0.4 in data set [4] (May 5); 1.0 in data set [4] (May 12); 3.2 in data set [4] (May 21); 6.0 in data set [4] (May 28). Moreover, the “Delay of bud break the following spring” value in data set [4] is “about 15 days”. In data set [4], the “Impact on bud mortality” value is recorded as “without apparent impact on bud mortality”. Moreover, the “Average number of broken buds per vine” value in data set [5] (6 days after warming) is given as 0.7; in data set [5] (7 days after warming), 0.7; in data set [5] (8 days after warming), 1.7; in data set [5] (11 days after warming) it was 2.5; in data set [5] (12 days after warming), 2.5; in data set [5] (13 days after warming) it was 3.0. Besides, the “Average number of broken buds per vine” value in data set [5] (14 days after warming) worked out at 3.0; in data set [5] (15 days after warming), 4.0; in data set [5] (19 days after warming), 4.3; in data set [5] (20 days after warming), 4.3. Also, the “Effect on average number of broken buds over time” value in data set [5] (repeated spray application during the bud break period) is reported as “not significantly impacted”. The “Average number of fruit per tree” value in data set [6] (100 ppm in 0.1% Brij 98, fall foliar application, June 10) was 75. In addition, the “Effect on number of fruit per tree the following spring” value in data set [6] (fall foliar application) is listed as “reduced the number of fruit per tree”. Also, the “Delay of bud break compared to ABA treated or untreated vines” value in data set [7] (100 mg fall soil drench) is “about 2 weeks”. The “Average rating of bud break (1-6 scale)” value in data set [7] (Apr. 23, 2008) is listed as 1.0; in data set [7] (April 28), 1.0; in data set [7] (April 30), 1.0; in data set [7] (May 2) it was 1.0; in data set [7] (May 5), 1.0; in data set [7] (May 7), 1.0. For the same compound, the “Average rating of bud break (1-6 scale)” value came out at 1.0 in data set [7] (May 9); 1.0 in data set [7] (May 12); 1.0 in data set [7] (May 14); 1.0 in data set [7] (May 16); 1.2 in data set [7] (May 19); 1.2 in data set [7] (May 21). Moreover, the “Average rating of bud break (1-6 scale)” value in data set [7] (May 23) amounted to 1.8; in data set [7] (May 28), 2.7. The “Potency relative to ABA in delaying bud break” value in data set [8] (100 ppm PBI-429 versus 10,000 ppm ABA, fall foliar application) is on record as “about 100 times”. Further, the “Percentage of broken floral buds” value in data set [8] (100 ppm in 0.1% Brij 98, fall foliar application, April 8) worked out at 56 Percentage.

In turn, `C#CC1(C)CC(=O)C=C(C)C1(O)C=CC(C)=CC(=O)O` (racemic) [PBI-524] yielded a Brix of juice in data set [2] of 19.37. In addition, the pH of juice in data set [2] was found to be 3.14. Besides, the “Effect on maturation of the following crop of grapes (juice pH and Brix)” value in data set [2] is “delayed maturation”. Further, the “Average BBCH rating of bud developmental stages” value was found to be 0.0 in data set [4] (May 1, 2009); 0.4 in data set [4] (May 5); 1.0 in data set [4] (May 12); 3.7 in data set [4] (May 21); 6.7 in data set [4] (May 28). Moreover, in data set [4], the “Delay of bud break the following spring” value was “about 15 days”. Also, the “Impact on bud mortality” value in data set [4] and in data set [1] was “without apparent impact on bud mortality” in each case. Further, the “Average number of broken buds per vine” value in data set [1] (setting [9]) came out at 13; in data set [1] (1000 ppm in 0.1% Silwet Brij 98, fall foliar application), 2. The “Effect on bud break the following spring” value in data set [1] is on record as “delayed bud break”.
